# Assay results published in patent US12522851B2, “Method for purifying indole-3-lactic acid from Lactobacillus plantarum fermentation supernatant” (Zhejiang Gongshang University, priority 2021, dated 2026).
# Tests used:
# Experiment in all cases: Oxford cup method antibacterial activity
# Assay type in all cases: cell-based
# [1] = system: Listeria monocytogenes LM1; settings: 150 μL of 10 mg/ml in 1% acetonitrile aqueous solution, 1% indicator bacteria, read-out: Diameter of inhibition zone
# Experimental: (§1) The antibacterial activity of indole-3-lactic acid obtained by purification in step III in Embodiment 2 (i.e., concentrated H4 with a purity of 99.00%) was determined by an oxford cup method. 1% (volume concentration) of indicator bacteria was added to 150 μL of 10 mg/ml indole-3-lactic acid (dissolved in 1% acetonitrile aqueous solution). […] Listeria monocytogenes LM1, Bacillus subtilis BAS2, Salmonella paratyphi B CMCC50094, Salmonella paratyphi A CMCC50093, Salmonella enterica subsp. arizonae CMCC (B) 47001 and Salmonella typhimurium CMCC50015 were purchased from National Center for Medical Culture Collections (CMCC). Escherichia coli DH5a was purchased from Sangon Biotech (Shanghai) Co., Ltd. Staphylococcus aureus ATCC25923, Pseudomonas aeruginosa ATCC47085, Salmonella enterica subsp. enterica ATCC14028 and Salmonella choleraseuis ATCC13312 were purchased from American Type Culture Collection (ATCC). Micrococcus luteus CICC 10209 was purchased from China Center of Industrial Culture Collection (CICC). Staphylococcus citreus LC5 was purchased from China Center for Type Culture Collection (CCTCC). Staphylococcus simulans, Staphylococcus warneri, Staphylococcus carnosus pCA44 and Staphylococcus carnosus pot20 were presented by Professor Eefjan Breukink of Utrecht University in the Netherlands.
# [2] = system: Salmonella enterica subsp. enterica ATCC14028; settings: 150 μL of 10 mg/ml in 1% acetonitrile aqueous solution, 1% indicator bacteria, read-out: Diameter of inhibition zone
# Experimental: as §1
# [3] = system: Staphylococcus aureus ATCC25923; settings: 150 μL of 10 mg/ml in 1% acetonitrile aqueous solution, 1% indicator bacteria, read-out: Diameter of inhibition zone
# Experimental: as §1
# [4] = system: Salmonella typhimurium CMCC50015; settings: Salmonella enterica, 150 μL of 10 mg/ml in 1% acetonitrile aqueous solution, 1% indicator bacteria, read-out: Diameter of inhibition zone
# Experimental: as §1
# [5] = system: Staphylococcus carnosus pot20; settings: 150 μL of 10 mg/ml in 1% acetonitrile aqueous solution, 1% indicator bacteria, read-out: Diameter of inhibition zone
# Experimental: as §1
# [6] = system: Staphylococcus simulans; settings: 150 μL of 10 mg/ml in 1% acetonitrile aqueous solution, 1% indicator bacteria, read-out: Diameter of inhibition zone
# Experimental: as §1
# [7] = system: Escherichia coli DH5α; settings: 150 μL of 10 mg/ml in 1% acetonitrile aqueous solution, 1% indicator bacteria, read-out: Diameter of inhibition zone
# Experimental: as §1
# [8] = system: Salmonella paratyphi B CMCC50094; settings: Salmonella enterica, 150 μL of 10 mg/ml in 1% acetonitrile aqueous solution, 1% indicator bacteria, read-out: Diameter of inhibition zone
# Experimental: as §1
# [9] = system: Salmonella enterica subsp. arizonae CMCC(B)47001; settings: 150 μL of 10 mg/ml in 1% acetonitrile aqueous solution, 1% indicator bacteria, read-out: Diameter of inhibition zone
# Experimental: as §1
# [10] = system: Pseudomonas aeruginosa ATCC47085; settings: 150 μL of 10 mg/ml in 1% acetonitrile aqueous solution, 1% indicator bacteria, read-out: Diameter of inhibition zone
# Experimental: as §1
# [11] = system: Bacillus subtilis BAS2; settings: 150 μL of 10 mg/ml in 1% acetonitrile aqueous solution, 1% indicator bacteria, read-out: Diameter of inhibition zone
# Experimental: as §1
# [12] = system: Staphylococcus carnosus pCA44; settings: PCA44, read-out: Diameter of inhibition zone
# Experimental: as §1
# [13] = system: Micrococcus luteus CICC 10209; settings: CICC10209, 150 μL of 10 mg/ml in 1% acetonitrile aqueous solution, 1% indicator bacteria, read-out: Diameter of inhibition zone
# Experimental: as §1
# [14] = system: Salmonella paratyphi A CMCC50093; settings: Salmonella enterica, 150 μL of 10 mg/ml in 1% acetonitrile aqueous solution, 1% indicator bacteria, read-out: Diameter of inhibition zone
# Experimental: as §1
# [15] = system: Staphylococcus citreus LC5; settings: 150 μL of 10 mg/ml in 1% acetonitrile aqueous solution, 1% indicator bacteria, read-out: Diameter of inhibition zone
# Experimental: as §1
# [16] = system: Staphylococcus warneri; settings: 150 μL of 10 mg/ml in 1% acetonitrile aqueous solution, 1% indicator bacteria, read-out: Diameter of inhibition zone
# Experimental: as §1
# [17] = system: Salmonella choleraseuis ATCC13312; settings: 150 μL of 10 mg/ml in 1% acetonitrile aqueous solution, 1% indicator bacteria, read-out: Diameter of inhibition zone
# Experimental: as §1
compound,measurement,setting,value
"O=C(O)C(O)Cc1c[nH]c2ccccc12 (centres unmarked) [indole-3-lactic acid, Indole-3-lactic acid]",zone of inhibition at 10000 µg/mL,[1],10.95 ± 0.07 mm
same,zone of inhibition at 10000 µg/mL,[2],12.8 ± 0.17 mm
same,zone of inhibition at 10000 µg/mL,[3],13.4 ± 0.25 mm
same,zone of inhibition at 10000 µg/mL,[4],12.7 ± 0.18 mm
same,zone of inhibition at 10000 µg/mL,[5],15 ± 0.55 mm
same,zone of inhibition at 10000 µg/mL,[6],13.4 ± 0.25 mm
same,zone of inhibition at 10000 µg/mL,[7],12.5 ± 0.17 mm
same,zone of inhibition at 10000 µg/mL,[8],13.2 ± 0.21 mm
same,zone of inhibition at 10000 µg/mL,[9],13.4 ± 0.45 mm
same,zone of inhibition at 10000 µg/mL,[10],10.66 ± 0.08 mm
same,zone of inhibition at 10000 µg/mL,[11],15.67 ± 0.01 mm
same,zone of inhibition at 10000 µg/mL,[12],16.4 ± 0.27 mm
same,zone of inhibition at 10000 µg/mL,[13],19.1 ± 0.76 mm
same,zone of inhibition at 10000 µg/mL,[14],15.06 ± 0.08 mm
same,zone of inhibition at 10000 µg/mL,[15],13.06 ± 0.08 mm
same,zone of inhibition at 10000 µg/mL,[16],18.76 ± 0.06 mm
same,zone of inhibition at 10000 µg/mL,[17],13.6 ± 0.23 mm
